In patent US7550431B2, “Spatially-defined macrocycles incorporating peptide bond surrogates” (Tranzyme Pharma Inc., priority 2003, dated 2009):

The compounds below were run against T1, human motilin receptor (Homo sapiens, UniProt O43193) (assay: Competitive radioligand binding assay (motilin receptor), Method B1). Settings: [125I]-motilin competition, CHO cell membranes.
T1 construct: purchased PerkinElmer (SignalScreen) 6110544; host or cells: CHO cells, stably transfected (membranes)
Protocol: (§1) The compounds of the present invention were evaluated for their ability to interact at the human motilin receptor and the human ghrelin receptor utilizing competitive radioligand binding assays as described in Method B1 and B2, respectively. Further characterization of the interaction can be performed utilizing the functional assays described in Methods B3 and B4 for the motilin and ghrelin receptors, respectively. All of these methods can be conducted, if so desired, in a high throughput manner to permit the simultaneous evaluation of many compounds.
Competitive Radioligand Binding Assay (Motilin Receptor)
• Membranes were prepared from CHO cells stably transfected with the human motilin receptor and utilized at a quantity of 1.5 μg/assay point. [PerkinElmer® SignalScreen® Product #6110544, Perkin Elmer, Inc., Wellesley, Mass.] • [^125I]-Motilin (PerkinElmer®, #NEX-378); final concentration: 0.04-0.06 nM • Motilin (Bachem®, #H-4385, Bachem AG Corporation, Bubendorf, Switzerland); final concentration: 1 μM • Multiscreen® Harvest plates-GF/B (Millipore®, #MAHFB1H60, Millipore Corporation, Billerica, Mass.) • Deep-well polypropylene titer plate (Beckman Coulter®, #267006, Beckman Coulter, Inc., Fullerton, Calif.) • TopSeal-A (PerkinElmer®, #6005185) • Bottom seal (Millipore®, #MATAH0P00) • MicroScint™-0 (PerkinElmer®, #6013611) • Binding Buffer: 50 mM Tris-HCl (pH 7.4), 10 mM MgCl2, 1 mM EDTA, 0.1% BSA
Assay Volumes: • 150 μl of membranes diluted in binding buffer • 10 μl of compound diluted in binding buffer • 10 μl of radioligand ([^125I]-Motilin) diluted in binding buffer
(§2) Compounds were provided frozen on dry ice at a stock concentration of 10 mM diluted in 100% DMSO and stored at −20° C. until the day of testing. On the test day, compounds were allowed to thaw at room temperature and than diluted in assay buffer according to the desired test concentrations. Under these conditions, the maximum final DMSO concentration in the assay was 0.5%.
In deep-well plates, diluted cell membranes (1.5 μg/mL) are combined with 10 μl of either binding buffer (total binding, N=5), 1 μM motilin (non-specific binding, N=3) or the appropriate concentration of test compound. The reaction is initiated by addition of 10 μl of [^125I]-motilin (final conc. 0.04-0.06 nM) to each well. Plates are sealed with TopSeal-A, vortexed gently and incubated at room temperature for 2 hours. The reaction is arrested by filtering samples through pre-soaked (0.3% polyethyleneimine, 2 h) Multiscreen® Harvest plates using a Tomtec ® Harvester (TomTec, Inc., Hamden Conn.), washed 9 times with 500 μl of cold 50 mM Tris-HCl (pH 7.4), and than plates are air-dried in a fumehood for 30 minutes. A bottom seal is applied to the plates prior to the addition of 25 μl of MicroScint™-0 to each well. Plates are than sealed with TopSeal-A and counted for 30 sec per well on a TopCount® Microplate Scintillation and Luminescence Counter (PerkinElmer®) where results are expressed as counts per minute (cpm).
Data are analyzed by GraphPad Prism® (GraphPad Software, Inc., San Diego, Calif.) using a variable slope non-linear regression analysis.
[formula] where total and non-specific binding represent the cpm obtained in the absence or presence of 1 μM motilin, respectively.

T1 sequence (O43193 whole entry): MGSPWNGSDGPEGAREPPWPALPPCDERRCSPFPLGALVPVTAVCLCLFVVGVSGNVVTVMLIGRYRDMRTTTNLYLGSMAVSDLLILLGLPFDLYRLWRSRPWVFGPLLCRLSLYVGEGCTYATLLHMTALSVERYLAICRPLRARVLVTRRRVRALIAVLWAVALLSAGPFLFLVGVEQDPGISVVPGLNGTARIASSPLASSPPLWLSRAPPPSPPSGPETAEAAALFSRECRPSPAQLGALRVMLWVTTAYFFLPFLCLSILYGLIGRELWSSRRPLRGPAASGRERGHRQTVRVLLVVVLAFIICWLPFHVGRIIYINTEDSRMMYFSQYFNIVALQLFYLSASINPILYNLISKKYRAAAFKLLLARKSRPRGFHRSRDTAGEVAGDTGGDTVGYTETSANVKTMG

Compared with `CCC[C@@H]1NC(=O)[C@@H](C(C)C)CC[C@@H](Cc2ccc(OC)cc2)NCCOc2ccccc2CCCNC1=O` [Compound 109], `CCC[C@@H]1NC(=O)C(C(C)C)CC[C@@H](Cc2ccc(OC)cc2)NCCOc2ccccc2CCCNC1=O` (stereo partly shown) [Compound 110] is higher in Ki: 100 to 1000 nM for the first, 1000 to 10000 nM for the second.

`CCC[C@@H]1NC(=O)[C@@H](C(C)C)OC(=O)[C@@H](Cc2cccc3ccccc23)NCCOc2ccccc2CCCNC1=O` [Compound 111] and `CCC[C@@H]1NC(=O)[C@@H](C(C)C)OC(=O)[C@@H](Cc2ccc(O)cc2)NCCOc2ccccc2CCCNC1=O` [Compound 119] fall in the same range of Ki: 100 to 1000 nM for the first, 100 to 1000 nM for the second.

First: CCC[C@@H]1NC(=O)C(C(C)C)OC(=O)[C@@H](Cc2ccc(OC)cc2)NCCOc2ccccc2CCCNC1=O (stereo partly shown) [Compound 112]
Second: CCC[C@@H]1NC(=O)[C@@H](C(C)C)/C=C/[C@@H](Cc2ccc(OC)cc2)NCCOc2ccccc2CCCNC1=O [Compound 105]
The Ki of the first is lower: 100 to 1000 nM for the first, 1000 to 10000 nM for the second.

Compared with `CCC[C@@H]1NC(=O)[C@@H](C(C)C)NC(=O)[C@@H](Cc2ccc(O)cc2)NCCOc2ccccc2CCCOC1=O` [Compound 115], `CC(C)C[C@H]1C(=O)NCCCc2ccccc2OCCN[C@H](Cc2ccc(O)cc2)C(=O)N[C@H](C(C)C)C(=O)N1C` [Compound 116] is lower in Ki: 1000 to 10000 nM for the first, 100 to 1000 nM for the second. The second binds more tightly here.

Compared with `CC(C)[C@H]1CC[C@@H](Cc2cccc(Cl)c2)NCCOc2ccccc2CCCNC(=O)[C@H](CNC(=N)N)NC1=O` [Compound 101], `CCC[C@@H]1CC[C@@H](C(C)C)NC(=O)[C@@H](Cc2cccc(Cl)c2)NCCOc2ccccc2CCCNC1=O` [Compound 103] is higher in Ki: 10 to 100 nM for the first, 1000 to 10000 nM for the second. The first binds more tightly here.

Work on `CCC[C@@H]1/C=C/[C@@H](C(C)C)NC(=O)[C@@H](Cc2cccc(Cl)c2)NCCOc2ccccc2CCCNC1=O` [Compound 104] yielded a Ki of 1000 to 10000 nM.

What follows are compounds tested against T2, human ghrelin receptor (hGHS-R1a) (Homo sapiens, UniProt Q92847) (assay: Competitive radioligand binding assay (ghrelin receptor), Method B2). Settings: [125I]-ghrelin competition, HEK-293 cell membranes.
T2 construct: purchased PerkinElmer BioSignal RBHGHSM, lot#1887; host or cells: HEK-293 cells, stably transfected (membranes GHS-R/HEK 293)
T2 sequence (Q92847 whole entry): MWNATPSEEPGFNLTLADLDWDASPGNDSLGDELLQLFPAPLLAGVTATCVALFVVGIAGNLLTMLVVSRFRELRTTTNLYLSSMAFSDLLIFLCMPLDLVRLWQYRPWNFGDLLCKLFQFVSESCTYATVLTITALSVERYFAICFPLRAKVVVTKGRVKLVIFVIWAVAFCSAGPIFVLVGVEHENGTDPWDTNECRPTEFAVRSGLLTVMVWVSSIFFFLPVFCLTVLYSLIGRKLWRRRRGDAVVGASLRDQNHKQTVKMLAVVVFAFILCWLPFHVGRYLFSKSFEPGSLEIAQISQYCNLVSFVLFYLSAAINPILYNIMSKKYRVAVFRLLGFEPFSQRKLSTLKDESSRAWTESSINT
Protocol: as §1
Competitive Radioligand Binding Assay (Ghrelin Receptor)
The competitive binding assay at the human growth hormone secretagogue receptor (hGHS-R1a) was carried out analogously to assays described in the literature. (Bednarek M A et al. (2000), Structure-function studies on the new growth hormone-releasing peptide ghrelin: minimal sequence of ghrelin necessary for activation of growth hormone secretagogue receptor 1a; J Med Chem 43:4370-4376. Palucki B L et al. (2001), Spiro(indoline-3,4′-piperidine) growth hormone secretagogues as ghrelin mimetics; Bioorg Med Chem Lett 11:1955-1957.)
• Membranes (GHS-R/HEK 293) were prepared from HEK-293 cells stably transfected with the human ghrelin receptor (hGHS-R1a).
as §2, with “−80°” for “−20°”, “rt overnight” for “room temperature”, “then” for “than”, “maximal” for “maximum”, “0.1%.” for “0.5%.”
In deep-well plates, 220 μl of diluted cell membranes (final concentration: 0.71 μg/well) were combined with 40 μl of either binding buffer (total binding, N=5), 1 μM ghrelin (non-specific binding, N=3) or the appropriate concentration of test compound (N=2 for each test concentration). […] Plates were sealed with TopSeal-A, vortexed gently and incubated at rt for 30 min. The reaction was arrested by filtering samples through Multiscreen® Harvest plates (pre-soaked in 0.5% polyethyleneimine) using a Tomtec® Harvester, washed 9 times with 500 μL of cold 50 mM Tris-HCl (pH 7.4, 4° C.), and then plates were air-dried in a fumehood for 30 min. A bottom seal was applied to the plates prior to the addition of 25 μl of MicroScint™-0 to each well. Plates were than sealed with TopSeal-A and counted for 30 sec per well on a TopCount® Microplate Scintillation and Luminescence Counter (PerkinElmer®) using a count delay of 60 sec. Results were expressed as counts per minute (cpm).
Data were analyzed by GraphPad Prism® (GraphPad Software, Inc., San Diego, Calif.) using a variable slope non-linear regression analysis.

`C[C@@H]1NCCOc2ccccc2CCCNC(=O)[C@@H](Cc2ccccc2)NC(=O)CN(C)C1=O` [Compound 124] and `CN1CC(=O)N[C@H](Cc2ccccc2)C(=O)NCCCc2ccccc2OCCN[C@@H](CCCCN)C1=O` [Compound 127] fall in the same range of Ki: 1000 to 10000 nM for the first, 1000 to 10000 nM for the second.

`CCC(C)[C@@H]1NCCOc2ccccc2CCCNC(=O)[C@@H](Cc2ccccc2)NC(=O)[C@H](C(C)C)N(C)C1=O` (stereo partly shown) [Compound 131] and `CCC(C)[C@@H]1NCCOc2ccccc2CCCNC(=O)[C@@H](Cc2ccccc2)NC(=O)[C@H](C(C)CC)N(C)C1=O` (stereo partly shown) [Compound 138] fall in the same range of Ki: 100 to 1000 nM for the first, 100 to 1000 nM for the second.

Compared with `C[C@@H]1C(=O)N[C@H](Cc2ccc(F)cc2)C(=O)NCCOc2cccc(c2)OCCN[C@@H](C2CC2)C(=O)N1C` [Compound 149], `C[C@@H]1C(=O)N[C@H](Cc2ccc(F)cc2)C(=O)NCCOCCOCCN[C@@H](C2CC2)C(=O)N1C` [Compound 140] is higher in Ki: 100 to 1000 nM for the first, 1000 to 10000 nM for the second. The first binds more tightly here.

Compared with `CN1CC(=O)N[C@H](Cc2ccccc2)C(=O)NCCCc2ccccc2OCCN[C@@H](Cc2ccccc2)C1=O` [Compound 128], `CCC(C)[C@@H]1NCCOc2ccccc2CCCNC(=O)[C@@H](Cc2ccccc2)NC(=O)[C@@H](C(C)CC)N(C)C1=O` (stereo partly shown) [Compound 136] is higher in Ki: 100 to 1000 nM for the first, 1000 to 10000 nM for the second. The first binds more tightly here.

First: CCC[C@@H]1NCc2cccc(c2)CNC(=O)[C@@H](Cc2ccccc2)NC(=O)CN(C)C1=O [Compound 158]
Second: CCC[C@H]1C(=O)N(C)[C@H](C)C(=O)N[C@H](Cc2ccccc2)C(=O)NCCCc2ccccc2OCCN1C [Compound 167]
The Ki of the first is higher: 1000 to 10000 nM for the first, 100 to 1000 nM for the second.

For `CCC(C)[C@@H]1NCCOc2ccccc2/C=C/CNC(=O)N(Cc2ccccc2)NC(=O)[C@@H](C)N(C)C1=O` (stereo partly shown) [Compound 165], the Ki was 10 to 100 nM.
